US7807828B2, “Olanzapine analogs and methods of use thereof” (Hypnion, Inc., priority 2005, dated 2010)
Where “and” joins values, the source holds several entries; their conditions need not be identical. Identical values can stand only once.

Assays:
[1] = target: T1, histamine H1 receptor (bovine) (Bos taurus, UniProt P30546); assay: Histamine H1 binding assay, bovine cerebellar membranes, [3H]pyrilamine; conditions: for Ki: Table 7A, Ki in nM
T1 construct: the receptors were obtained from bovine cerebellar membrane tissue; from tissue; host or cells: bovine cerebellar membranes
T1 sequence (P30546 whole entry): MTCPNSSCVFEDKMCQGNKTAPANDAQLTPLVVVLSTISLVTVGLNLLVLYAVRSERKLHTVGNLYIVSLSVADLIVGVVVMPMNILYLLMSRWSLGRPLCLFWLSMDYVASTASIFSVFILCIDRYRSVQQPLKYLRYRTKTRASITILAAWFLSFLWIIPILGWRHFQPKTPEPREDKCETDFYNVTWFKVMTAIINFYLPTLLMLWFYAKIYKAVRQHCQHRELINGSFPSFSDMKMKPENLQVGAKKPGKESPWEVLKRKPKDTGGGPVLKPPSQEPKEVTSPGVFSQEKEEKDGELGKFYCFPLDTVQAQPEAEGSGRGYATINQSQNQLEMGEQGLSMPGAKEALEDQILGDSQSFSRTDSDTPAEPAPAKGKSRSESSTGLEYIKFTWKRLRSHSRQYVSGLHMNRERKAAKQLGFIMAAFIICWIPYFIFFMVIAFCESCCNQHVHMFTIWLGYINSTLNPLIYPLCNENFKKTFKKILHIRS

[2] = target: T2, human recombinant M1 expressed in CHO cells (Homo sapiens, UniProt P11229); assay: M1 muscarinic receptor binding assay; conditions: Table 7A, first line of column M1 M2 M3
T2 construct: purchased PerkinElmer, Inc., Wellesley, Mass; host or cells: CHO cells
T2 sequence (P11229 1-460): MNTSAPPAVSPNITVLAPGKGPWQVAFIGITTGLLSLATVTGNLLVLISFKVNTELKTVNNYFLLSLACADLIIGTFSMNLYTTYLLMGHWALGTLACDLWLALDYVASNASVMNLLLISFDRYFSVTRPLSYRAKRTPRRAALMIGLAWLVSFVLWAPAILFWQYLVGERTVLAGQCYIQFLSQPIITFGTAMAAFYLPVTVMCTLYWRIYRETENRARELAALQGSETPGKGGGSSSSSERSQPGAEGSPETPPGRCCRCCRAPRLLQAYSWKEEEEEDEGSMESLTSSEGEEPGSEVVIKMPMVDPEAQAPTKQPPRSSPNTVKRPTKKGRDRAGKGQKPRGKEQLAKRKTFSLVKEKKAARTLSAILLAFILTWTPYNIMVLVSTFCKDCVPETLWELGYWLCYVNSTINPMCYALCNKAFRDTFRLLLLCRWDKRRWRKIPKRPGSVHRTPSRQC

[3] = target: T3, human recombinant M2 expressed in CHO cells (Homo sapiens, UniProt P08172); assay: M2 muscarinic receptor binding assay; conditions: Table 7A, M1 M2 M3
T3 construct: purchased PerkinElmer, Inc., Wellesley, Mass; host or cells: CHO cells
T3 sequence (P08172 1-466): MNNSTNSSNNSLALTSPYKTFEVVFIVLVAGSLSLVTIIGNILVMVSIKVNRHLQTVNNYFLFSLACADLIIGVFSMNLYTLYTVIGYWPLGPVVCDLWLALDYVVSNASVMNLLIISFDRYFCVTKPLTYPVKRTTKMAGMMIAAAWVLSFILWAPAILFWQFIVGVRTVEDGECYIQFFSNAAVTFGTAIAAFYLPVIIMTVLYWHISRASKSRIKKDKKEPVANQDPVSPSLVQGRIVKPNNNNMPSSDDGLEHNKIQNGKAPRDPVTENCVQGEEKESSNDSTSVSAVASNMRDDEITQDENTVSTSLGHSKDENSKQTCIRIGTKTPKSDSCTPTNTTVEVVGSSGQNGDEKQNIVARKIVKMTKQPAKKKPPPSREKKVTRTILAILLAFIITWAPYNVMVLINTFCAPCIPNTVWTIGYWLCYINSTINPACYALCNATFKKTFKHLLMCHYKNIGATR

[4] = target: T4, human recombinant M3 expressed in CHO cells (Homo sapiens, UniProt P20309); assay: M3 muscarinic receptor binding assay; conditions: Table 7A, third line of column M1 M2 M3
T4 construct: purchased PerkinElmer, Inc., Wellesley, Mass; host or cells: CHO cells
T4 sequence (P20309 whole entry): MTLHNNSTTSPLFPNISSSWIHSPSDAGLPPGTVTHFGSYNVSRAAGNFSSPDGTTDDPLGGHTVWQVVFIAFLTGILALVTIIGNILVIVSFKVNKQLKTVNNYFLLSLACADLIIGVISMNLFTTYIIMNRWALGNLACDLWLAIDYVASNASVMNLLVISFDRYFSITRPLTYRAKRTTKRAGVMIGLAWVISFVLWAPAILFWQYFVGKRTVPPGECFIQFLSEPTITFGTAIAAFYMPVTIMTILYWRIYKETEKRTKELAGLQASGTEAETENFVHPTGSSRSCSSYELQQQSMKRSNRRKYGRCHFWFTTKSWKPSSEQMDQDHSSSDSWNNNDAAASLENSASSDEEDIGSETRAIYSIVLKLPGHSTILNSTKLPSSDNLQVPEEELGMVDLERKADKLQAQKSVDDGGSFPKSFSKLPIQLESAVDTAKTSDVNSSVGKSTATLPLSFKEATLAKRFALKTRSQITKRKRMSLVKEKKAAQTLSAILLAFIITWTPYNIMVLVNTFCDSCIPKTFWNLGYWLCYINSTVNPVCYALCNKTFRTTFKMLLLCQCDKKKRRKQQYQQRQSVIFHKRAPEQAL

D2 (h) = D2 (h) (Homo sapiens, UniProt P14416); assay: Dopamine D2 binding assay; conditions: Table 7A; unit inferred
D2 (h), sequence (P14416 whole entry): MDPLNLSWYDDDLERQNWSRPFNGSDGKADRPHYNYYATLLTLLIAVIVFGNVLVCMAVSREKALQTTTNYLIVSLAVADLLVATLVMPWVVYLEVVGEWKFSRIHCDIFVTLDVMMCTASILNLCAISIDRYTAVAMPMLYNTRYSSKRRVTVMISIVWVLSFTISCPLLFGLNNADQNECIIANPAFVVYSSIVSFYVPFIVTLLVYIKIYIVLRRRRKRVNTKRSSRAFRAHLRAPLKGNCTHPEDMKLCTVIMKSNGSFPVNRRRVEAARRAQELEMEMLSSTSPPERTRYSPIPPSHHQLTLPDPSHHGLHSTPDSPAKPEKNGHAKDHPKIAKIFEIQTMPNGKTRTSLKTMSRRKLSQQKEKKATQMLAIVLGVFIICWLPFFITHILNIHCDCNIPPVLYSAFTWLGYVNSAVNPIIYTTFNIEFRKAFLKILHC

5HT2a (hctx) = target: T5, 5HT2a (hctx) (Homo sapiens, UniProt P28223); assay: 5HT2a (hctx) binding assay; conditions: Table 7B; unit inferred
T5 construct: (hctx); from tissue; host or cells: human cortex (my reading of 'hctx')
T5 sequence (P28223 whole entry): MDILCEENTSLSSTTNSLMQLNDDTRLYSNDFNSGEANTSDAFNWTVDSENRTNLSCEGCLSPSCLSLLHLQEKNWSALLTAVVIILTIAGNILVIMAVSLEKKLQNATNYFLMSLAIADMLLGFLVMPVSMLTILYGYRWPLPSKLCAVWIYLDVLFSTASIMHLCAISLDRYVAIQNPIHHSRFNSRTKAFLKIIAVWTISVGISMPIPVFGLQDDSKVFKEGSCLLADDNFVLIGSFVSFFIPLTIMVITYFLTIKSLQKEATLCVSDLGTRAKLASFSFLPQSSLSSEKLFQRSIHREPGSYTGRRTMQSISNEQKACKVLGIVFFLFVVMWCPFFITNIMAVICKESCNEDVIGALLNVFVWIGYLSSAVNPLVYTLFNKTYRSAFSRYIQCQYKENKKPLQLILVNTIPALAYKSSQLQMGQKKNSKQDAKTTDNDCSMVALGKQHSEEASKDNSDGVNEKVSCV

adult, male Wistar rats = assay: Sleep-wakefulness monitoring (SCORE-2000, EEG/EMG) in rats; type: in vivo, rat; conditions: minutes; for NREM CUMULATION 10 mg/kg / LONGEST UNINTERRUPTED SLEEP BOUT 10 mg/kg: oral bolus at CT-18, 10 mg/kg
Experimental: Sleep-wakefulness, locomotor activity and body temperature are monitored in male Wistar rats treated with a test compound (i.e., olanzapine analog) initially at a concentration of 10 mg/kg. Higher and lower doses are assayed for select compounds (e.g., as high as 45 mg/kg, and as low as necessary to establish a no-effect dose). Treatments are administered at CT-18, the peak of the activity dominated period (6 hours after lights-off), and produced soporific (sleep-inducing) effects characterized by increased non-REM sleep time, increased sleep continuity, but without evidence of REM sleep inhibition or rebound insomnia.
Sleep-wakefulness, locomotor activity and body temperature were monitored in vivo with various compounds of the invention. Adult, male Wistar rats (250 g at time of surgery, Charles River Laboratories, Wilmington Mass.) were anesthetized (2% isoflourane in medical grade oxygen) and surgically prepared with a cranial implant to permit chronic electro-encephalogram (EEG) and electromyogram (EMG) recording. Body temperature and locomotor activity were monitored via a miniature transmitter (Mini-Mitter, Bend, Oreg.) surgically placed in the abdomen. The cranial implant consisted of stainless steel screws (two frontal (+3.2 AP from bregma, ±2.0 ML) and two occipital (−6.9 AP, ±5.5 ML)) for EEG recording. Two Teflon®-coated stainless steel wires were positioned under the nuchal trapezoid muscles for EMG recording. All leads were soldered to a miniature connector prior to surgery, and gas sterilized in ethylene oxide. The implant assembly was affixed to the skull with dental acrylic. A minimum of three weeks was allowed for surgical recovery.
Each rat was permanently housed in its own individual recording cage located within separate, ventilated compartments of custom-designed stainless steel cabinets. Each cage was enhanced with a filter-top riser and low-torque swivel-commutator. Food and water were available ad libitum. A 24-hr light-dark cycle (12 hours light, 12 hours dark) was maintained throughout the study. Animals were undisturbed for at least 48 hours before and after treatments.
Sleep and wakefulness were determined using “SCORE-2000™” (Hypnion, Worcester, Mass.)—an internet-based sleep-wake and physiological monitoring system. The system monitored amplified EEG (bandpass 1-30 Hz), integrated EMG (bandpass 10-100 Hz), body temperature and non-specific locomotor activity (LMA) via telemetry, and drinking activity, continuously and simultaneously. Arousal states were classified on-line as non-REM (NREM) sleep, REM sleep, wake, or theta-dominated wake every 10 seconds. Total drinking and locomotor activity counts, and body temperature were quantitiated and recorded each minute, using EEG feature extraction and pattern-matching algorithms. […] The classification algorithm used individually-taught EEG-arousal-state templates, plus EMG criteria to differentiate REM sleep from theta-dominated wakefulness, plus behavior-dependent contextual rules (e.g., if the animal was drinking, it is awake). Drinking and locomotor activity intensity (LMA) were recorded every 10 seconds, while body temperature was recorded each minute. Locomotor activity was detected by a telemetry receiver (Mini-Mitter) beneath the cage. Telemetry measures (LMA and body temperature) were not part of the scoring algorithm; thus, sleep-scoring and telemetry data were independent measures.
Compounds were administered at CT-18, the peak of the activity-dominated period, sufficient time was allowed to view the time course of the treatment effect before lights-on (6 hours post-treatment). Compounds were suspended in sterile 0.25% or 0.5% methylcellulose (1-2 ml/kg). Treatments were administered orally as a bolus.
A parallel group study design was employed. […]

SMILES	Ki [1]	Ki [2]	Ki [3]	Ki [4]	Ki (D2 (h))	Ki (5HT2a (hctx))	LONGEST UNINTERRUPTED SLEEP BOUT 3 mg/kg (adult, male Wistar rats; oral bolus at CT-18, 3 mg/kg)	NREM CUMULATION 10 mg/kg (adult, male Wistar rats)	LONGEST UNINTERRUPTED SLEEP BOUT 10 mg/kg (adult, male Wistar rats)	LONGEST UNINTERRUPTED SLEEP BOUT 30 mg/kg (adult, male Wistar rats; oral bolus at CT-18, 30 mg/kg)	NREM CUMULATION 30 mg/kg (adult, male Wistar rats; oral bolus at CT-18, 30 mg/kg)	specificity for H1 over the muscarinic receptors ([1]; from Ki for H1 and M1, M2, M3)	LONGEST UNINTERRUPTED SLEEP BOUT 0.3 mg/kg (adult, male Wistar rats; oral bolus at CT-18, 0.3 mg/kg)	LONGEST UNINTERRUPTED SLEEP BOUT 1 mg/kg (adult, male Wistar rats; oral bolus at CT-18, 1 mg/kg)	NREM CUMULATION 3 mg/kg (adult, male Wistar rats; oral bolus at CT-18, 3 mg/kg)
CCc1cc2c(s1)Nc1ccccc1N=C2N1CCN(CC(C)(C)C(=O)O)CC1 [Compound 90]	30 nM	> 10000 nM	> 10000 nM	> 10000 nM	196 nM	314 nM	12.3 ± 4.0 min	48 ± 8 min	–	–	–	–	–	–	–
Cc1cc2c(s1)Nc1ccccc1N=C2N1CCN(CC2(C(=O)O)CC2)CC1 [Compound 91]	30.1 nM	> 10000 nM	> 10000 nM	> 10000 nM	202 nM	59.1 nM	–	26 ± 4 min	10.7 ± 3.2 min	–	–	–	–	–	–
Cc1cc2c(s1)Nc1ccccc1N=C2N1CCN(CC(C)(C)C(=O)O)CC1 [Compound 46]	56 nM	> 10000 nM	> 10000 nM	> 10000 nM	1100 nM and 533 nM and 847 nM	639 nM	10.8 ± 3.2 min	42 ± 5 min	15.5 ± 4.1 min	–	–	highly specific for H1 over the muscarinic receptors	3.9 min	11.8 ± 2.7 min	38 ± 4 min

More lines, main results first:

Ki [1]	Ki [2]	Ki [3]	Ki [4]	Ki (D2 (h))	Ki (5HT2a (hctx))	SMILES	LONGEST UNINTERRUPTED SLEEP BOUT 3 mg/kg (adult, male Wistar rats; oral bolus at CT-18, 3 mg/kg)	NREM CUMULATION 10 mg/kg (adult, male Wistar rats)	LONGEST UNINTERRUPTED SLEEP BOUT 10 mg/kg (adult, male Wistar rats)	LONGEST UNINTERRUPTED SLEEP BOUT 30 mg/kg (adult, male Wistar rats; oral bolus at CT-18, 30 mg/kg)	NREM CUMULATION 30 mg/kg (adult, male Wistar rats; oral bolus at CT-18, 30 mg/kg)	specificity for H1 over the muscarinic receptors ([1]; from Ki for H1 and M1, M2, M3)	LONGEST UNINTERRUPTED SLEEP BOUT 0.3 mg/kg (adult, male Wistar rats; oral bolus at CT-18, 0.3 mg/kg)	LONGEST UNINTERRUPTED SLEEP BOUT 1 mg/kg (adult, male Wistar rats; oral bolus at CT-18, 1 mg/kg)	NREM CUMULATION 3 mg/kg (adult, male Wistar rats; oral bolus at CT-18, 3 mg/kg)
53.5 nM	> 10000 nM	> 10000 nM	> 10000 nM	2480 nM	232 nM	Cc1cc2c(s1)Nc1ccccc1N=C2N1CCN(CCC(=O)O)CC1 [Compound 92]	–	10 ± 4 min	3.1 ± 2.5 min	5.7 ± 1.8 min	27 ± 4 min	–	–	–	–
45.2 nM	> 10000 nM	> 10000 nM	> 10000 nM	107 nM	73 nM	CC(C)c1cc2c(s1)Nc1ccccc1N=C2N1CCN(CC(C)(C)C(=O)O)CC1 [Compound 94]	–	47 ± 6 min	19.9 ± 3.7 min	–	–	–	–	–	–
